Test results: US10730865B2, “Compounds for modulating aquaporins” (APOGLYX AB, priority 2016, dated 2020)

What follows are molecules tested against human aquaporin 9 (Homo sapiens (Human), UniProt O43315) (assay: Calcein quenching fluostar assay (inhibition of human aquaporin 9)). Settings: Human AQP9 cell line; example compounds used as 1 mM stock solutions in DMSO.
Type: cell-based
Protocol: Calcein Quenching Fluostar Assay
A calcein quenching fluostar assay was performed in order to investigate the biological activity of the newly synthesized examples 1 to 57. This type of assay is disclosed in J. Biol. Chem., 2011, 286, 44319-44325 and Am. J. Physiol. Renal Physiol. (2010), 298, F224-230.
1) Two days prior to commencement of the assay, seed 10,000 cells/well of 96 well black clear bottom plate (Greiner Poly-lysin plate). A 1:1 mix of Dulbecco's Modified Eagle's Medium: Nutrient Mixture F-12 (DMEM: F12) was obtained from Gibco. Tetracycline stock of 5 mg/ml in 96% ethanol is used. Medium: DMEM/F12/10% Donor Bovine Serum, Human AQP9 cell line+1:270,000 tetracyclin, mouse AQP9 cell line+1:2,700,000 tetracycline.
2) Day of assay: Flick/slam off the medium and add 50 μl/well of loading solution: 5 ml DMEM/F12/10% Donor Bovine Serum, 25 μl Calcein AM—from freshly dissolved aliquot in 50 μl DMSO (VWR #734-1434), and 100 μl Probenecid.
3) Incubate the well for 90 minutes at 37° C.
4) Perform one wash with 75 μl wash buffer.
5) Add 75 μl of an example compound prepared in wash buffer per well.
Example compounds are prepared in 500 μl U bottom PP plates (NUNC). 2.7 μl Substance in DMSO are added to row A; 180 μl of wash buffer+1% DMSO are added to rows B—H. 90 μl from row A are transferred and mixed with all other wells (up to row G) to make a 3-fold dilution series.
6) Assay in FLUOstar Optima at 25° C. Settings buffer addition at 135 μl/seconds, add 75 μl/well, record time course for 30 seconds, add sucrose buffer 3.6 seconds into recording.
7) Normalization to initial in Excel.
8) Fit to “exponential decay” function in GraphPad Prism 5.0, then arrange half live shrinking values according to wells and fit dose-response curves.

Sequence of human aquaporin 9 (O43315 whole entry): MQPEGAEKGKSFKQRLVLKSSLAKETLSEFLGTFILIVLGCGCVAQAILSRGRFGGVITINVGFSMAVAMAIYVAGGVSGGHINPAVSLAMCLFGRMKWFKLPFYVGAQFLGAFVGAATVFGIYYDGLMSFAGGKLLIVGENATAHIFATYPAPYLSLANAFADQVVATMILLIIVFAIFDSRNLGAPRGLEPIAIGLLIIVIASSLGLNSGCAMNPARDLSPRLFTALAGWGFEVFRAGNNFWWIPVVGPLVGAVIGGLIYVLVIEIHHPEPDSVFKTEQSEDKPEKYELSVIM

Structure (SMILES) | EC50 [nM]
CCn1c(CCOC)nnc1SCC(=O)Nc1nnc(-c2ccc(OC)cc2)s1 [Example 44, 2-[(4-ethyl-5-(2-methoxyethyl)-4H-1,2,4-triazol-3-yl)sulfanyl]-N-[5-(4-methoxyphenyl)-1,3,4-thiadiazol-2-yl]acetamide] | 457
CCn1c(SCC(=O)Nc2nnc(-c3ccc(S(C)(=O)=O)cc3)s2)nnc1C1CCCC1 [Example 45, (2-[(5-cyclopentyl-4-ethyl-4H-1,2,4-triazol-3-yl)sulfanyl]-N-[5-(4-methanesulfonylphenyl)-1,3,4-thiadiazol-2-yl]acetamide)] | 40
CCn1c(CN2CCOCC2)nnc1SCC(=O)Nc1nnc(-c2ccc(OC)cc2)s1 [Example 48, 2-{[4-ethyl-5-(morpholin-4-ylmethyl)-4H-1,2,4-triazol-3-yl]sulfanyl}-N-[5-(4-methoxyphenyl)-1,3,4-thiadiazol-2-yl]acetamide] | 230
CCc1nnc(SCC(=O)Nc2nnc(-c3ccccn3)s2)n1CC [Example 49, 2-[(4,5-diethyl-4H-1,2,4-triazol-3-yl)sulfanyl]-N-[5-(pyridin-2-yl)-1,3,4-thiadiazol-2-yl]acetamide] | 224

Other lines, results leading:

EC50 [nM] | Structure (SMILES)
112 | CCc1nnc(SCC(=O)Nc2nnc(-c3ccc(OC)cc3)s2)n1CCOC [Example 46, 2-[(5-ethyl-4-(2-methoxyethyl)-4H-1,2,4-triazol-3-yl)sulfanyl]-N-[5-(4-methoxyphenyl)-1,3,4-thiadiazol-2-yl]acetamide]
159 | CCc1nnc(SCC(=O)Nc2nnc(-c3ccc(OC)cc3)s2)n1CCCOC [Example 47, 2-{[5-ethyl-4-(3-methoxypropyl)-4H-1,2,4-triazol-3-yl]sulfanyl}-N-[5-(4-methoxyphenyl)-1,3,4-thiadiazol-2-yl]acetamide]
